Test results reported in patent US12435061B2 (priority 2020, dated 2025).
≈ marks a conversion by molar mass, not a printed value. Read-outs that look alike come from different tables or passages of the source.

Tests used:
[1] = biological target: T1, hTRPV3 (Homo sapiens (Human), UniProt Q8NET8); assay: Whole-cell patch clamp, hTRPV3 Phase 1 / Phase 2 currents; type: cell-based; settings: Phase 1 current
Procedure, shortened: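 Whole-cell recordings on induced TRPV3 cells replated on coverslips, held at −40 mV with 400 ms ramps from −120 to +100 mV every 5 s; currents read at −80 and +80 mV. Ringer's external solution; current activated by heating to ≥28 °C or 20 μM 2-APB.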

[2] = biological target: human hERG channels (Homo sapiens (Human), UniProt Q12809); assay: hERG assay (patch clamp, CHO cells); type: cell-based
Protocol: hERG assay: Briefly, cells from a stable CHO cell line expressing human hERG channels were plated onto glass coverslips and used in patch clamp assays on the same day. After seal formation and break-in to whole-cell configuration, voltage steps were applied as follows: from the holding potential of −90 mV, a 2 second long step to +40 mV was applied, followed by a 1.5 second step to −50 mV. These steps were applied once every 5 seconds. The hERG current was measured at the peak of the outward tail current at −50 mV. The pipette solution was potassium aspartate based and the external solution was normal Ringer's.
All currents were recorded in whole-cell configuration using an Axopatch 200B controlled by pClamp 10 software (Molecular Devices). In each cell, when the current stabilized, the compound was perfused locally onto the cell. Two to three concentrations of the test compound were applied to each cell. At the end of compound testing, 10 μM verapamil was applied to completely block hERG currents and assess leak current.
Data were analyzed by computing the degree of current block after compound addition compared with the unblocked current amplitude. The unblocked current was predicted from the interpolation between the current amplitude prior to compound addition and after compound washout. The resulting percent block at each concentration was used to make a concentration-response plot and fitted to the Hill equation: percent block=minimum block+(maximum block-minimum block)/(1+10^(Hill slope*(log IC50−concentration))).

[3] = Aqueous solubility assay in Normal Ringer Solution; settings: Normal Ringer Solution, saline or isotonic, kinetic from dmso stock
Protocol: Following vortex and incubation for a sufficient time (e.g. 40 minutes at room temperature), solutions were filtered, quenched with acetonitrile, and analyzed by Liquid Chromotography. Solubility Limits were determined by comparison to a standard curve.

[4] = Metabolic Stability assay, rat liver microsomes; type: in vitro ADME; settings: read-out: LM T1/2 (min) rat
Procedure, shortened: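 Test article at 1 μM starting concentration incubated with human or rat liver microsomes at 37 °C, with the reaction started by NADPH regeneration components. Aliquots were quenched in cold acetonitrile/MeOH/H2O at 0, 7, 15, 30 and 60 min and analysed by HPLC/MS/MS.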

[5] = biological target: T1, hTRPV3; assay: FLIPR Assay (calcium flux, HEK293 cells stably expressing TRPV3); type: cell-based
Protocol: In Tables 3 and 4, Phase 1 refers to Phase 1 current for human (h) TRPV3 or rat (r) TRPV3, and Phase 2 refers to Phase 2 current for human (h) TRPV3 or rat (r) TRPV3. The hTRPV3 and rTRPV3 assays were performed as described herein. hERG refers to the inhibition the human ERG (hERG) channel. NaV1.5, refers to the pore forming aL-subunit of the voltage-dependent cardiac Na(+) channel and is an integral membrane protein involved in the initiation and conduction of action potentials. hTRPV3 HAMA IC50 refers to the IC50 of TRPV3 cells stably expressed in TRex-293 cells. Solubility Ringer refers to the compounds' solubility in Ringer's solution. LM T1/2 refers to liver microsome half-lives in either rat or human liver microsomes. FLIPR IC50 refers to the IC50 of the test compounds against recombinant hTRPV3 cells.
The cells were treated with IBSS and 20 mM HEPES adjusted to pH 7.4 in the presence of the fluorescent calcium indicator e.g. Fluo-4AM (5 uM) and the plates were incubated at 37° C. and […] for approximately 1 hour and cooled to room temperature. […] Relative Fluorescence Units (RFU) were measured for each response for signal maximum minus minimum during approximately 90 seconds after addition.

[6] = biological target: T1, hTRPV3; assay: hTRPV3 HAMA IC50 assay (Hamamatsu FDSS6000 calcium flux, TRex-293 cells); settings: read-out: hTRPV3 HAMA IC50; 2-APB stimulated calcium flux
Protocol: IC50s were calculated using CBIS from ChemInnovation (San Diego).

[7] = human TRPV3, read-out: hTRPV3 (nM) Phase 1
[8] = inward, whole-cell patch clamp, read-out: hTRPV3 Patch P1 Inwd

Sequence of human hERG channels (Q12809 whole entry): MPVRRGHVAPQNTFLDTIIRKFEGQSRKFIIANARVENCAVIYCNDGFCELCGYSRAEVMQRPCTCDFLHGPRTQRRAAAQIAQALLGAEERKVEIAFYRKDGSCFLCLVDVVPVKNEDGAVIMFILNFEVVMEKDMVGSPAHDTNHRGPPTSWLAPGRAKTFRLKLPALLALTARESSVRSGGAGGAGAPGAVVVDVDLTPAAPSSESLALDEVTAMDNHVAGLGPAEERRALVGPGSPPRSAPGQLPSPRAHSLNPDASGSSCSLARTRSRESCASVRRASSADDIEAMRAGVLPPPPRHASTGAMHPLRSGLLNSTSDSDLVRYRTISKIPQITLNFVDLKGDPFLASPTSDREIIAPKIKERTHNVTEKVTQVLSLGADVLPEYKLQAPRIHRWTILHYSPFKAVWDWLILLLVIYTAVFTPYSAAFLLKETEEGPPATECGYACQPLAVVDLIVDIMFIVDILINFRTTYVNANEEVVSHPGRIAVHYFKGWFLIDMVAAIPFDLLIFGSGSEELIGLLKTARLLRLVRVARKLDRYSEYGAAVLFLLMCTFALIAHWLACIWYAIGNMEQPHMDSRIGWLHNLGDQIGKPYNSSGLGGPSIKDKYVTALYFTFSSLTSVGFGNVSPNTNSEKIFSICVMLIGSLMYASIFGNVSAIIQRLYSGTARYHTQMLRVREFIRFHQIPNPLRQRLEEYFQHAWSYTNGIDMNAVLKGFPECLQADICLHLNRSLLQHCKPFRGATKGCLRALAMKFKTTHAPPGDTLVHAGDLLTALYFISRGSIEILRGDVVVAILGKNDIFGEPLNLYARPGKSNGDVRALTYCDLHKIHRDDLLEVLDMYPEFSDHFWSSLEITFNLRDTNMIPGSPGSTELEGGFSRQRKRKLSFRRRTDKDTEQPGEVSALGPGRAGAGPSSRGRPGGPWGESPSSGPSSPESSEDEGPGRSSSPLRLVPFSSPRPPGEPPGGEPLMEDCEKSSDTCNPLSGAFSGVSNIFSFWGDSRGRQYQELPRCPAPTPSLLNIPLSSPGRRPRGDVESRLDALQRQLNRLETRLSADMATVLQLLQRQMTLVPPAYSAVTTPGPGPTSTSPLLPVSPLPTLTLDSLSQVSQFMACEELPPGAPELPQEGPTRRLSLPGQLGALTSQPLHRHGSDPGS
T1 sequence (Q8NET8 whole entry): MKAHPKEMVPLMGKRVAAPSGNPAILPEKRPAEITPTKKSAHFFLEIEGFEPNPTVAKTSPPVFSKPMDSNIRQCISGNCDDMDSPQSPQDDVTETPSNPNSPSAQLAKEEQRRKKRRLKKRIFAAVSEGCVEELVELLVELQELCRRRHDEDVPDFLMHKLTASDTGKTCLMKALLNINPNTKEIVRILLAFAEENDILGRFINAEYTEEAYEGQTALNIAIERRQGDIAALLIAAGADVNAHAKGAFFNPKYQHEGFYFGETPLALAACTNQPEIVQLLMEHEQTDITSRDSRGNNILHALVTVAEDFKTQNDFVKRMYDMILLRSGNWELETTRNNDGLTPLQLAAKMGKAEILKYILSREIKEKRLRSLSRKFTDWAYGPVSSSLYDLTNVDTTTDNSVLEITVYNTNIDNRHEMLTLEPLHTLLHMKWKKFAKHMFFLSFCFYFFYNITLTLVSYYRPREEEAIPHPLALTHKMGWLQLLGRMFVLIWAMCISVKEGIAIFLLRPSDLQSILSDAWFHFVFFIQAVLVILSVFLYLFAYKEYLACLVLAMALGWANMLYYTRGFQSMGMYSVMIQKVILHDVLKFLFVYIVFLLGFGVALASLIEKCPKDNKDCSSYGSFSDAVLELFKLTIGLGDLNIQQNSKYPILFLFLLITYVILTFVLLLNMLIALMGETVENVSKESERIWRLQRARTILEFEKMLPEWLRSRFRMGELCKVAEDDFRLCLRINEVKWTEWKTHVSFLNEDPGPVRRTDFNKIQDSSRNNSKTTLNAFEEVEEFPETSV

Row | Compound | IC50 [1, 7] | IC50 [1, 8] | IC50 ([2]; (PL), read-out: hERG (nM) (PL)) | solubility at 40 min [3] | half-life at 1 μM [4] | IC50 ([5]; read-out: FLIPR IC50) | also measured
1 | CC(C)c1ccccc1Oc1ccc(C2CCN(C(=O)c3ncccc3Cl)C2)c(CO)c1 (stereo not shown) [Compound 2-12, (3-chloropyridin-2-yl)(3-(2-(hydroxymethyl)-4-(2-isopropylphenoxy)phenyl)pyrrolidin-1-yl)methanone] | 101 nM | 10 to 100 nM | 12600 nM | > 8 µM | 7.55 min |  | 
2 | CCc1ccccc1Oc1ccc(C2CCN(C(=O)c3ncccc3Cl)C2)c(CO)c1 (stereo not shown) [Compound 2-83, (3-chloropyridin-2-yl)(3-(4-(2-ethylphenoxy)-2-(hydroxymethyl)phenyl)pyrrolidin-1-yl)methanone] | 95.1 nM |  | 16000 nM | > 11 µM | 9.46 min |  | 
3 | CCOc1ccccc1-c1ccc(C2CCN(C(=O)c3ccc(Cl)cn3)C2)c(CO)c1 (stereo not shown) [Compound 2-69, (5-chloropyridin-2-yl)(3-(2′-ethoxy-3-(hydroxymethyl)biphenyl-4-yl)pyrrolidin-1-yl)methanone] | 25.3 nM | 10 to 100 nM | 12300 nM | > 16 µM | 12.6 min |  | 
4 | CC(C)c1ccccc1Oc1ccc(C2CC(=O)N(Cc3ccccn3)C2)c(CO)c1 (stereo not shown) [Compound 2-93, 4-(2-(hydroxymethyl)-4-(2-isopropylphenoxy)phenyl)-1-(pyridin-2-ylmethyl)pyrrolidin-2-one] | 205 nM | 100 to 1000 nM |  | ~4.2 µM (≈ 1.75 µg/mL) | 5.05 min |  | IC50 [2]: ~5970 nM; IC50 ([2]; (M), read-out: hERG): ~10800 nM
5 | O=C(c1ncon1)N1CCC(c2ccc(-c3ccccc3C3CC3)cc2CO)C1 (stereo not shown) [Compound 2-127] |  |  |  |  |  | 1.9 µM | IC50 [6]: 130 nM
6 | Cc1nc(C(=O)N2CCC(c3ccc(-c4ccccc4C4CC4)cc3CO)C2)ccc1O (stereo not shown) [Compound 2-143] |  |  |  | 0.0183 µM (≈ 0.00784 µg/mL) |  |  | IC50 ([5]; FLIPR IC50 (uM)): 0.86 µM; IC50 [6]: 10.3 nM
7 | CCc1ccccc1-c1ccc(C2CCN(C(=O)c3ccc(C(F)(F)F)cn3)C2)c(CO)c1 (stereo not shown) [Compound 2-47, (3-(2′-ethyl-3-(hydroxymethyl)biphenyl-4-yl)pyrrolidin-1-yl)(5-(trifluoromethyl)pyridin-2-yl)methanone] | 18.4 nM | 10 to 100 nM | 17200 nM | ~5.6 µM (≈ 2.55 µg/mL) | 28.1 min |  | 
8 | O=C(c1ncc(Cl)cn1)N1CCC(c2ccc(-c3ccccc3C3CC3)cc2CO)C1 (stereo not shown) [Compound 2-159] |  |  |  |  |  | 5.18 µM | 
9 | CC(C)c1ccccc1Oc1ccc(C2CCN(Cc3ccccn3)C2)c(CO)c1 (stereo not shown) [Compound 2-87, (5-(2-isopropylphenoxy)-2-(1-(pyridin-2-ylmethyl)pyrrolidin-3-yl)phenyl)methanol] | 699 nM | 100 to 1000 nM | 260 nM |  | 2.46 min |  | 
10 | CC(C)c1ccccc1Oc1ccc(C2CCN(C(=O)c3ncccc3Cl)C2)c(C(N)=O)c1 (stereo not shown) [Compound 2-26, 2-(1-(3-chloropicolinoyl)pyrrolidin-3-yl)-5-(2-isopropylphenoxy)benzamide] | 217 nM | 100 to 1000 nM | 10400 nM | > 19.2 µM | 19.7 min |  | 
11 | O=C(c1cnccn1)N1CCC(c2ccc(-c3ccccc3C3CC3)cc2CO)C1 (stereo not shown) [Compound 2-105, (3-(2′-cyclopropyl-3-(hydroxymethyl)biphenyl-4-yl)pyrrolidin-1-yl)(pyrazin-2-yl)methanone] | 61.2 nM | 10 to 100 nM | 11700 nM | > 21 µM | 12.9 min |  | 
12 | COc1ncc(C(=O)N2CCC(c3ccc(-c4ccccc4C4CC4)cc3CO)C2)nc1C (stereo not shown) [Compound 2-126] |  |  |  |  |  | 1.18 µM | IC50 [6]: 84 nM
13 | COCc1ccnc(C(=O)N2CCC(c3ccc(-c4ccccc4C4CC4)cc3CO)C2)c1 (stereo not shown) [Compound 2.155] |  |  |  |  |  | 9.25 µM | 
14 | O=C(c1cccc(CO)n1)N1CCC(c2ccc(-c3ccccc3C3CC3)cc2CO)C1 (stereo not shown) [Compound 2.152] |  |  |  |  |  | 4.56 µM | 
15 | CC(C)c1ccccc1-c1ccc(C2CCN(C(=O)c3ccccn3)C2)c(CO)c1 (stereo not shown) [Compound 2-42] | 22.7 nM | 10 to 100 nM | 18300 nM | > 19.7 µM | 11.7 min |  | 
16 | Cc1nnc(C(=O)N2CCC(c3ccc(-c4ccccc4C4CC4)cc3CO)C2)cc1O (stereo not shown) [Compound 2-142] |  |  |  |  |  | > 10 µM | 
17 | Cn1cnc(C(=O)N2CCC(c3ccc(-c4ccccc4C4CC4)cc3CO)C2)c1 (stereo not shown) [Compound 2-161] |  |  |  |  |  | 9.52 µM | 
18 | O=C(c1cnc(CO)cn1)N1CCC(c2ccc(-c3ccccc3C3CC3)cc2CO)C1 (stereo not shown) [Compound 2-137] |  |  |  |  |  | > 10 µM | 
19 | COc1ccnc(C(=O)N2CCC(c3ccc(-c4ccccc4C4CC4)cc3CO)C2)c1 (stereo not shown) [Compound 2-141] |  |  |  |  |  | 4.49 µM | 
